Experimental data from patent publication US20100267561A1, “HERBICIDAL PYRIDAZINONE DERIVATIVES” (priority 2007, published 2010).

Tests used:
Type in all cases: in vivo
[1] = tested on: wheat (Triticum aestivum); experiment: Test A pre-/postemergence plant response
In short: (§1)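 Greenhouse pot test: loam–sand soil; pre- and postemergence sprays applied same day; post plants 2–10 cm, 1–2 leaves. Readout ~10 d, visual % injury vs untreated (0 = none, 100 = complete control).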

[2] = tested on: velvetleaf (Abutilon theophrasti); experiment: Test A pre-/postemergence plant response
In short: as §1

[3] = tested on: large crabgrass (Digitaria sanguinalis); experiment: Test A pre-/postemergence plant response
In short: as §1

[4] = tested on: barnyardgrass (Echinochloa crus-galli); experiment: Test A pre-/postemergence plant response
In short: as §1

[5] = tested on: giant foxtail (Setaria faberi); experiment: Test A pre-/postemergence plant response
In short: as §1

[6] = tested on: pigweed (Amaranthus retroflexus); experiment: Test A pre-/postemergence plant response
In short: as §1

corn (Zea mays) = experiment: Test A pre-/postemergence plant response
In short: as §1

[7] = tested on: morningglory (Ipomoea coccinea); experiment: Test A pre-/postemergence plant response
In short: as §1

[8] = tested on: canarygrass (Phalaris minor); experiment: Test B postemergence plant response; conditions: for Canarygrass plant response rating: 8 g ai/ha, postemergence, 0-100 scale; for Plant response rating, Canarygrass: Postemergence
In short: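 Visual injury ratings on a 0–100 scale, where 100 means complete control, were made 13 to 15 days after postemergence treatment of greenhouse-grown plants at the 1- to 4-leaf stage.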

[9] = tested on: ducksalad (Heteranthera limosa); experiment: Test B flooded paddy test plant response
In short: (§2)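 Step one: raise plants to 2 leaves. Step two: flood pots 3 cm over the soil and apply compound into the water, keeping this depth. Step three: after 13–15 greenhouse days, score visually versus controls, 0–100, where 100 means complete control.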

[10] = tested on: umbrella sedge (Cyperus difformis); experiment: Test B flooded paddy test plant response
In short: as §2

rice (Oryza sativa) = experiment: Test B flooded paddy test plant response
In short: as §2

[11] = tested on: barnyardgrass (Echinochloa crus-galli); experiment: Test B flooded paddy test plant response
In short: as §2

[12] = Postemergence, 31 g ai/ha, 0 to 100 scale, 0 no effect, 100 complete control
[13] = Postemergence, 125 g ai/ha, 0 to 100 scale, 0 no effect, 100 complete control
[14] = Preemergence, 31 g ai/ha, 0 to 100 scale, 0 is no effect, 100 is complete control
[15] = Preemergence, 125 g ai/ha, 0 to 100 scale (0 no effect, 100 complete control)
[16] = Flood (flooded paddy test), 62 g ai/ha, scale 0 to 100, 0 no effect, 100 complete control
[17] = Flood (flooded paddy test), 125 g ai/ha, scale 0 to 100, 0 no effect, 100 complete control
[18] = Flood (flooded paddy test), 250 g ai/ha, scale 0 to 100, 0 no effect, 100 complete control
[19] = Flood, 31 g ai/ha, scale 0 to 100
[20] = 31 g ai/ha, scale 0 to 100, 0 no effect, 100 complete control
[21] = Postemergence, 500 g ai/ha, 0 to 100 scale, 0 no effect, 100 complete control
[22] = Preemergence, 500 g ai/ha, 0 to 100 scale (0 no effect, 100 complete control)

Compound: CCc1cc(-c2ccc(C(F)(F)F)cc2)nn1-c1c(O)c(OC)nn(C)c1=O [Compound 66]
- Plant response rating, Wheat [1, 12]: 90
- Plant response rating, Wheat [1, 13]: 100
- Plant response rating, Wheat [1, 14]: 60
- Plant response rating, Wheat [1, 15]: 90
- Plant response rating, Velvetleaf [2, 12]: 0
- Plant response rating, Velvetleaf [2, 13]: 0
- Plant response rating, Velvetleaf [2, 14]: 0
- Plant response rating, Velvetleaf [2, 15]: 0
- Plant response rating, Crabgrass, Large [3, 12]: 100
- Plant response rating, Crabgrass, Large [3, 13]: 100
- Plant response rating, Crabgrass, Large [3, 14]: 0
- Plant response rating, Crabgrass, Large [3, 15]: 70
- Plant response rating, Barnyardgrass [4, 12]: 100
- Plant response rating, Barnyardgrass [4, 13]: 100
- Plant response rating, Barnyardgrass [4, 14]: 10
- Plant response rating, Barnyardgrass [4, 15]: 100
- Plant response rating, Foxtail, Giant [5, 12]: 100
- Plant response rating, Foxtail, Giant [5, 13]: 100
- Plant response rating, Foxtail, Giant [5, 14]: 90
- Plant response rating, Foxtail, Giant [5, 15]: 100
- Plant response rating, Pigweed [6, 12]: 0
- Plant response rating, Pigweed [6, 13]: 0
- Plant response rating, Pigweed [6, 14]: 0
- Plant response rating, Pigweed [6, 15]: 0
- Plant response rating, Corn (corn (Zea mays); [12]): 100
- Plant response rating, Corn (corn (Zea mays); [13]): 100
- Plant response rating, Corn (corn (Zea mays); [14]): 40
- Plant response rating, Corn (corn (Zea mays); [15]): 80
- Plant response rating, Morningglory [7, 12]: 0
- Plant response rating, Morningglory [7, 13]: 0
- Plant response rating, Morningglory [7, 14]: 0
- Plant response rating, Morningglory [7, 15]: 0
- Canarygrass plant response rating [8]: 40
- Plant response rating, Canarygrass ([8]; 16 g ai/ha, scale 0 to 100): 90
- Plant response rating, Canarygrass ([8]; 31 g ai/ha, scale 0 to 100): 95
- Plant response rating, Ducksalad [9, 16]: 0
- Plant response rating, Ducksalad [9, 17]: 0
- Plant response rating, Ducksalad [9, 18]: 0
- Plant response rating, Ducksalad [9, 19]: 0
- Plant response rating, Sedge, Umbrella [10, 16]: 0
- Plant response rating, Sedge, Umbrella [10, 17]: 0
- Plant response rating, Sedge, Umbrella [10, 18]: 0
- Plant response rating, Sedge, Umbrella [10, 19]: 0
- Plant response rating, Rice (rice (Oryza sativa); [16]): 0
- Plant response rating, Rice (rice (Oryza sativa); [17]): 0
- Plant response rating, Rice (rice (Oryza sativa); [18]): 30
- Plant response rating, Rice (rice (Oryza sativa); [19]): 0
- Plant response rating, Barnyardgrass [11, 16]: 0
- Plant response rating, Barnyardgrass [11, 17]: 20
- Plant response rating, Barnyardgrass [11, 18]: 20
- Plant response rating, Barnyardgrass [11, 19]: 0

Compound: CCCc1cc(-c2ccc(Cl)cc2)nn1-c1c(O)cnn(C)c1=O [Compound 43]
- Plant response rating, Wheat [1, 12]: 40
- Plant response rating, Wheat [1, 13]: 80
- Plant response rating, Wheat [1, 14]: 20
- Plant response rating, Wheat [1, 15]: 70
- Plant response rating, Velvetleaf [2, 12]: 0
- Plant response rating, Velvetleaf [2, 13]: 0
- Plant response rating, Velvetleaf [2, 14]: 0
- Plant response rating, Velvetleaf [2, 15]: 0
- Plant response rating, Crabgrass, Large [3, 12]: 40
- Plant response rating, Crabgrass, Large [3, 13]: 90
- Plant response rating, Crabgrass, Large [3, 14]: 10
- Plant response rating, Crabgrass, Large [3, 15]: 90
- Plant response rating, Barnyardgrass [4, 12]: 90
- Plant response rating, Barnyardgrass [4, 13]: 100
- Plant response rating, Barnyardgrass [4, 14]: 100
- Plant response rating, Barnyardgrass [4, 15]: 100
- Plant response rating, Foxtail, Giant [5, 12]: 80
- Plant response rating, Foxtail, Giant [5, 13]: 100
- Plant response rating, Foxtail, Giant [5, 14]: 90
- Plant response rating, Foxtail, Giant [5, 15]: 100
- Plant response rating, Pigweed [6, 12]: 0
- Plant response rating, Pigweed [6, 13]: 0
- Plant response rating, Pigweed [6, 14]: 0
- Plant response rating, Pigweed [6, 15]: 0
- Plant response rating, Corn (corn (Zea mays); [12]): 50
- Plant response rating, Corn (corn (Zea mays); [13]): 80
- Plant response rating, Corn (corn (Zea mays); [14]): 0
- Plant response rating, Corn (corn (Zea mays); [15]): 90
- Plant response rating, Morningglory [7, 12]: 0
- Plant response rating, Morningglory [7, 13]: 0
- Plant response rating, Morningglory [7, 14]: 0
- Plant response rating, Morningglory [7, 15]: 0
- Canarygrass plant response rating [8]: 30
- Plant response rating, Canarygrass ([8]; 16 g ai/ha, scale 0 to 100): 50
- Plant response rating, Canarygrass [8, 20]: 50
- Plant response rating, Canarygrass ([8]; 62 g ai/ha, scale 0 to 100, 0 no effect, 100 complete control): 95
- Plant response rating, Ducksalad [9, 16]: 0
- Plant response rating, Ducksalad [9, 17]: 0
- Plant response rating, Ducksalad [9, 18]: 30
- Plant response rating, Ducksalad [9, 19]: 0
- Plant response rating, Sedge, Umbrella [10, 16]: 0
- Plant response rating, Sedge, Umbrella [10, 17]: 0
- Plant response rating, Sedge, Umbrella [10, 18]: 0
- Plant response rating, Sedge, Umbrella [10, 19]: 0
- Plant response rating, Rice (rice (Oryza sativa); [16]): 15
- Plant response rating, Rice (rice (Oryza sativa); [17]): 20
- Plant response rating, Rice (rice (Oryza sativa); [18]): 20
- Plant response rating, Rice (rice (Oryza sativa); [19]): 0
- Plant response rating, Barnyardgrass [11, 16]: 50
- Plant response rating, Barnyardgrass [11, 17]: 75
- Plant response rating, Barnyardgrass [11, 19]: 40

Compound: 5-[3-(4-chlorophenyl)-5-methyl-1H-pyrazol-1-yl]-1,6-dihydro-1-methyl-6-oxo-4-pyridazinyl-1-methylethyl carbonate [Compound 7]
- Plant response rating, Wheat [1, 13]: 40
- Plant response rating, Wheat [1, 21]: 60
- Plant response rating, Wheat [1, 15]: 60
- Plant response rating, Wheat [1, 22]: 80
- Plant response rating, Velvetleaf [2, 13]: 20
- Plant response rating, Velvetleaf [2, 21]: 40
- Plant response rating, Velvetleaf [2, 15]: 0
- Plant response rating, Velvetleaf [2, 22]: 30
- Plant response rating, Crabgrass, Large [3, 13]: 80
- Plant response rating, Crabgrass, Large [3, 21]: 90
- Plant response rating, Crabgrass, Large [3, 15]: 100
- Plant response rating, Crabgrass, Large [3, 22]: 100
- Plant response rating, Barnyardgrass [4, 13]: 80
- Plant response rating, Barnyardgrass [4, 21]: 100
- Plant response rating, Barnyardgrass [4, 15]: 100
- Plant response rating, Barnyardgrass [4, 22]: 100
- Plant response rating, Foxtail, Giant [5, 13]: 90
- Plant response rating, Foxtail, Giant [5, 21]: 90
- Plant response rating, Foxtail, Giant [5, 15]: 100
- Plant response rating, Foxtail, Giant [5, 22]: 100
- Plant response rating, Pigweed [6, 13]: 0
- Plant response rating, Pigweed [6, 21]: 0
- Plant response rating, Pigweed [6, 15]: 0
- Plant response rating, Pigweed [6, 22]: 0
- Plant response rating, Corn (corn (Zea mays); [13]): 50
- Plant response rating, Corn (corn (Zea mays); [21]): 100
- Plant response rating, Corn (corn (Zea mays); [15]): 60
- Plant response rating, Corn (corn (Zea mays); [22]): 90
- Plant response rating, Morningglory [7, 13]: 0
- Plant response rating, Morningglory [7, 21]: 20
- Plant response rating, Morningglory [7, 15]: 20
- Plant response rating, Morningglory [7, 22]: 20
- Plant response rating, Canarygrass [8, 20]: 90
- Plant response rating, Canarygrass ([8]; 125 g ai/ha, scale 0 to 100): 90
- Plant response rating, Canarygrass ([8]; 250 g ai/ha, scale 0 to 100): 90
- Plant response rating, Ducksalad [9, 16]: 0
- Plant response rating, Ducksalad [9, 17]: 20
- Plant response rating, Ducksalad [9, 18]: 40
- Plant response rating, Ducksalad [9, 19]: 0
- Plant response rating, Sedge, Umbrella [10, 16]: 80
- Plant response rating, Sedge, Umbrella [10, 17]: 80
- Plant response rating, Sedge, Umbrella [10, 18]: 80
- Plant response rating, Sedge, Umbrella [10, 19]: 70
- Plant response rating, Rice (rice (Oryza sativa); [16]): 30
- Plant response rating, Rice (rice (Oryza sativa); [17]): 45
- Plant response rating, Rice (rice (Oryza sativa); [18]): 65
- Plant response rating, Rice (rice (Oryza sativa); [19]): 20
- Plant response rating, Barnyardgrass [11, 16]: 45
- Plant response rating, Barnyardgrass [11, 17]: 65
- Plant response rating, Barnyardgrass [11, 18]: 85
- Plant response rating, Barnyardgrass [11, 19]: 20
